Key:
Assay type in all cases: cell-based
Details in all cases: after 10, 20, 40 and 60 minutes at all dilutions 1:100, 1:200, 1:400, 1:800
[1] = system: Staphylococcus aureus; experiment: Antimicrobial screening by agar dilution, St. Aereus
Description: (§1) The antibacterial properties of the synthesized compound (9-(6-flouro-2-hydroxypyridin-3-yl)-10-(2-hydroxyethyl)-3,6-diphenyl-3,4,6,7,9,10-hexahydroacridine1,8(2H,5H)-dione) were studied by the method of agar dilution. Test solutions of each compound was prepared in concentration of 1% using dimethylformamide as a solvent then they are diluted in physiological solution to obtain the final experimental dilutions 1:100, 1:200, 1:400, 1:800. The effect of these substances are compared with furacillin in a controllable study. The testing microbes used were gram positive bacteria Staphylococcus aureus, gram negative bacteria Pseudomonas aeruginosa and Escherichia coli and Candida albicans fungus. The experiments used for this survey were meat-pentonlu agar (EPA) for cultivation of bacteria and Saburo environment for the fungus. Each experiment used 1 mL of test solution on each plate […]. Two drops of emulsified with microbes feel were added. All experimental samples were taken from the agar after 10, 20, 40, 60 minutes in the environment on the basis of Patrk planted. The bacteria were cultivated at a temperature of 37° C. for 1 day and the mushroom was kept in a thermostat for […] at a temperature of 28° C. Then results were checked.

[2] = system: Escherichia coli; experiment: Antimicrobial screening by agar dilution, E. Coli
Description: as §1

[3] = system: Pseudomonas aeruginosa; experiment: Antimicrobial screening by agar dilution, Ps. Aeroqonaza
Description: as §1

[4] = system: Candida albicans; experiment: Antimicrobial screening by agar dilution, Candida albicans
Description: as §1

Measured: inhibition activity (in words)

O=C1CC(c2ccccc2)CC2=C1C(c1cc3cc(F)ccc3nc1O)C1=C(CC(c3ccccc3)CC1=O)N2CCO (stereo not shown)
the most higher inhibition activity: all assays above

Source: patent US12168651B1, “9-(6-flouro-2-hydroxypyridin-3-yl)-10-(2-hydroxyethyl)-3,6-diphenyl-3,4,6,7,9,10-hexahydroacridine1,8(2H,5H)-dione as an antimicrobial compound” (KING FAISAL UNIVERSITY, priority 2023, dated 2024)
